From patent US4937236A, “Anxiolytic N-substituted benzamides” (priority 1987, dated 1990)
Counter-ions that a name gives are not always drawn.

Columns and labels:
[1] = test system: CuSO4-induced emesis; assay: CuSO4-induced emesis in the dog; type: in vivo; details: for C4 SO4 - INDUCED VOMITING No EMETIC EPISODES IN THE DOG (% Inh.): 1 mg/kg i.v.
Text: (Kayashima, N., Tanaka, M., Iwasaki, M. & Hayama, T. Japan J. Pharmacol. (1978)28: 775-781).

[2] = test system: Apomorphine-induced emesis; assay: Apomorphine-induced emesis in the dog; details: for APOMORPHINE-INDUCED VOMITING IN THE DOG % Protected animals: 1 mg/kg i.v.
[3] = target: T1, 5HT3 receptors located in vagal afferent fibres (Rattus norvegicus, UniProt P35563); assay: Inhibition of the Bezold-Jarisch reflex in the anaesthetized rat; type: in vivo; details: iv, read-out: BEZOLD-JARISCH REFLEX IN THE RAT (ID50; μg/kg i.v.)
T1 construct: 5HT3 receptors located in vagal afferent fibres; from tissue; host or cells: vagal afferent fibres of the anaesthetized rat (in vivo)
T1 sequence (P35563 24-483): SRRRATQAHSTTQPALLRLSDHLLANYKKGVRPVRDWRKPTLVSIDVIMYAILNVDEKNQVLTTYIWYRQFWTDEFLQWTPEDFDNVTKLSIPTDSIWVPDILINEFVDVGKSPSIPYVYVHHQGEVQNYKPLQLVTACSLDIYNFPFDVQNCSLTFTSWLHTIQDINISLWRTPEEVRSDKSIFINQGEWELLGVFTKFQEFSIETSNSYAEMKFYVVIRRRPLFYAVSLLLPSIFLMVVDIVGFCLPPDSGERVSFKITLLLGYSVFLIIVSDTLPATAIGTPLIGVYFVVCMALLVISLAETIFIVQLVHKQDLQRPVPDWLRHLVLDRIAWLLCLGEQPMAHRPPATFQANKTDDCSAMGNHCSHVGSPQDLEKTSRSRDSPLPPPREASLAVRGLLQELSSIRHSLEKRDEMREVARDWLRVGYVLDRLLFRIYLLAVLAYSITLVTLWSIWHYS
Text: (1) Stimulation by 5-HT of 5HT3 receptors located in vagal afferent fibres produces a fall in heart rate and blood pressure in the anaesthetized rat (Bezold-Jarisch reflex).

[4] = test system: gastric emptying; assay: Stomach emptying (gastric emptying of glass beads) in the rat; type: in vivo; parameters: unit not given here
Text: (5) Stomach emptying in the rat, administering compounds by oral route. (Jacoby, H. I., and Brodie, D. A. Gastroenterol. 52, 676-684, 1967).
All of them show a good prokinetic activity in the gastric emptying of glass beads in the rat.

[5] = test system: Cis-platinum induced emesis; assay: Cis-platinum induced emesis in the dog; type: in vivo
Text: (Gylys, J. A., Dora, K. M. & Buyniski J. P. Res. Comm. Chem. Pathol. Pharmacol. (1979)23: 61-68).

SMILES	C4 SO4 - INDUCED VOMITING No EMETIC EPISODES IN THE DOG (% Inh.) [1] [%]	APOMORPHINE-INDUCED VOMITING IN THE DOG % Protected animals [2] [%]	ED50 [3] [µg/kg]	GASTRIC EMPTYING IN THE RAT [drawing 8] ([4]; 0.01 mg/kg p.o.)	GASTRIC EMPTYING IN THE RAT [drawing 8] ([4]; 1.0 mg/kg p.o.)	CISPLATIN-INDUCED VOMITING IN THE DOG (% inhibition) ([5]; 0.03 mg/kg i.v.) [%]	CISPLATIN-INDUCED VOMITING IN THE DOG (% inhibition) ([5]; 0.1 mg/kg p.o.) [%]	activity in CuSO4-induced vomiting in the dog (in words) [1]	antiemetic activity in apomorphine-induced vomiting in the dog (in words) [2]	CISPLATIN-INDUCED VOMITING IN THE DOG (% inhibition) ([5]; 1 mg/kg i.v.) [%]	CISPLATIN-INDUCED VOMITING IN THE DOG (% inhibition) ([5]; 3 mg/kg p.o.) [%]
Nc1cc(OCC2CC2)c(C(=O)NC2CN3CCC2CC3)cc1Cl (stereo not shown) [Compound 1, N-(1-azabicyclo[2.2.2]oct-3-yl)-2-cyclopropylmethoxy-4-amino-5-chlorobenzamide]	40	0	0.56	55	85	88	85	–	–	–	–
CN1[C@@H]2CC[C@H]1C[C@H](NC(=O)c1cc(Cl)c(N)cc1OCC1CC1)C2 [Compound 16, N(8-methyl-8-azabicyclo[3.2.1]oct3β-yl)2-cyclopropylmethoxy-4-amino-5-chlorobenzamide]	45	0	2.6	32	71	53	61	–	–	–	–
COCCOc1cc(N)c(Cl)cc1C(=O)NC1CN2CCC1CC2 (stereo not shown) [Compound 11, N-(1-azabicyclo[2.2.2]oct-3-yl)-2-methoxyethoxy-4-amino-5-chlorobenzamide]	24	0	0.42	60	68	81	0	–	–	–	–
CCN(CC)CCNC(=O)c1cc(Cl)c(N)cc1OC [Metoclopramide, N-[2-(diethylamino)ethyl]-2-methoxy-4-amino-5-chlorobenzamide, reference compound]	60	100	330	0	42	–	–	decreases the number of emetic episodes	very active	69	85
COc1cc(N)c(Cl)cc1C(=O)NC1CN2CCC1CC2 (stereo not shown) [Zacopride, N-(1-azabicyclo[2.2.2]oct-3-yl)-2-methoxy-4-amino-5-chlorobenzamide, reference compound]	0	0	0.21	51	77	92	88	totally inactive	lack antiemetic activity	–	–
COCCOc1cc(N)c(Cl)cc1C(=O)N[C@@H]1C[C@H]2CC[C@@H](C1)N2C [Compound 23, N-(8-methyl-8-azabicyclo[3.2.1]oct-3β-yl)-2-(2-methoxyethoxy)-4-amino-5-chlorobenzamide acid fumarate]	30	0	0.63	13	61	31	53	–	–	–	–
